Measured values taken from BindingDB's records for doi:10.1021/jm00075a026 (Solvay Duphar, 1994).

Biological target: T1, Glycine receptor subunit alpha-4 (Mus musculus, UniProt Q61603)
T1 sequence (Q61603 whole entry): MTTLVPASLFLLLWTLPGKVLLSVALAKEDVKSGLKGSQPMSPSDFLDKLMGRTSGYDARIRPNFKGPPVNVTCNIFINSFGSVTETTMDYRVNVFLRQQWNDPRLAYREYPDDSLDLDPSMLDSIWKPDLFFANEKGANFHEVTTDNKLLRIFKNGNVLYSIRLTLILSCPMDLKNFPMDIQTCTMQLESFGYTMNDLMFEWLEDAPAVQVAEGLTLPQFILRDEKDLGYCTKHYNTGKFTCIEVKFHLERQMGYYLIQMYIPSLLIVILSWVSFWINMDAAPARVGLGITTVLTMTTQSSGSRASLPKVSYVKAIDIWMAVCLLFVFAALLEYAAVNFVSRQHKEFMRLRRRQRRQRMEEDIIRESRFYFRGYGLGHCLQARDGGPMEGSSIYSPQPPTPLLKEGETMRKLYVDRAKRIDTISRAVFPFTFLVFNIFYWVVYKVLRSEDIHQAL
Assay: ChEBML_219281
Protocol: The binding affinity was measured on glycine receptor using [3H]- strychnine as radioligand.

Ki: > 10 µM
Structure (SMILES): Cc1nccn1CC1CCc2c(c3ccccc3n2C)C1=O (stereo unspecified) [NSC_68647]
